Test results as given in patent US20240300940A1, “Phenothiazinyl Compounds and Uses” (Prosetta Biosciences, Inc., priority 2023, published 2024).
Where two headings read alike, the source gives them in different places.

Legend:
S. aureus ATCC25923 = assay: Minimum bactericidal concentration assay; assay type: cell-based; settings: Staphylococcus aureus
Procedure: (§1) The study was done based on CLSI document M26-A Wayne, PA: Clinical and laboratory standard institute: 1999.
(§2) After determination of a MIC in a broth system under standard conditions, measured aliquots of growth media may be sub-cultured quantitatively to solid media to assess bactericidal activity. To calculate the extent of killing at each antibiotic concentration, plates are incubated under appropriate conditions, colony counts are performed and results are compared to that of the growth control well. The accepted definition of the minimum bactericidal concentration (MBC) is the lowest concentration of test compound at which a 99.9% (3 log) or greater reduction in growth compared with the initial inoculum is observed. […] (Table 4).

S. pyogens ATCC49399 [1] = assay: Minimum bactericidal concentration assay; assay type: cell-based; settings: Streptococcus
Procedure: as §1, §2

MRSA/S. aureus isolates = assay: MIC50 against isolates; assay type: cell-based; settings: Staphylococcus aureus
MRSA ATCC 43300 [2] = assay: Minimum biofilm inhibition assay; assay type: cell-based, S. aureus
Procedure: The biofilm susceptibility assay and calculation of the percent reduction of AB were performed as described previously (Pettit et al., Antimicrob Agents Chem 2005, 49:2612-17). Biofilm formation was induced by growing MRSA on TSA containing 2% glucose at 37° C. for 24 hrs. After the incubation, culture was used to adjust the cell number to 1-5×10^5 CFU/mL. In parallel, two-fold dilutions of test drug/antibiotic in DMSO/solvent was prepared separately in a PCR dilution plate. 100 μL of CFU adjusted 100 μL of culture was added to 96 well plate by leaving wells for only media control. After adding culture, 2-fold diluted compound in 100% DMSO was added to 96 well plate and plates were incubated another 16-20 hrs at 37° C., to check susceptibility of biofilm forming MRSA with test drug/antibiotic. After susceptibility incubation, Resazurin was added to check inhibition of biofilm forming cells.

MRSA ATCC 43300 [3] = assay: Serum effect on antibacterial activity (MIC); assay type: cell-based, S. aureus; settings: Staphylococcus aureus
Hennes-20 cells = assay: Hennes-20 oncology screen; assay type: cell-based; settings: 72 h, alamar Blue
Summary of the method: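 Cells seeded at 500 and 15,000 per well in minimum essential medium, dosed with a compound titration after 24 h, then incubated 72 h at 37 °C. Alamar Blue added and incubated a further 72 h, read at 530/590. Lower signal only at low density indicates proliferation arrest; lower signal at both densities indicates toxicity.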

Organ exposure in mice = settings: mice IV 3 mg/kg
S. epidermidis ATCC14990 = assay: MIC assay, serial dilution; settings: Staphylococcus epidermidis
S. pyogens ATCC49399 [4] = assay: MIC assay, serial dilution; settings: Streptococcus
S. pneumoniae ATCC49619 = assay: MIC assay, serial dilution; settings: Streptococcus pneumoniae
E. faecalis ATCC29212 = assay: MIC assay, serial dilution; settings: Enterococcus faecalis
E. faecium ATCC27270 = assay: MIC assay, serial dilution; settings: Enterococcus faecium
E. coli ATCC25922 = assay: MIC assay, serial dilution; settings: Escherichia coli
A. baumannii ATCC19606 = assay: MIC assay, serial dilution; settings: Acinetobacter baumannii
[5] = tested on: different species of gram-positive bacteria; assay: MIC assay, summary over gram-positive species; settings: exception E. faecalis

With `CC1(C)C2CN(c3ccc4nc5ccc(N6CC7C(C6)C7(C)C)cc5[s+]c4c3)CC21` (stereo not drawn) [Compound 1, 3,7-Di(6,6-dimethyl-3-azabicyclo[3.1.0]hexan-N-yl)phenothiazinium iodide] the MBC (S. aureus ATCC25923) was 0.25 µg/mL, the MBC (S. pyogens ATCC49399 [1]) was 0.5 µg/mL and the MIC50 (MRSA/S. aureus isolates) was 0.125 µg/mL. For the same compound, the MBIC (MRSA ATCC 43300 [2]; MRSA ATCC 43300, biofilm forming) was 0.25, the “concentration inhibiting biofilm forming MRSA” value (MRSA ATCC 43300 [2]; biofilm forming MRSA) was 1 × MIC and the MIC (MRSA ATCC 43300 [3]; MRSA ATCC 43300, 20% serum) was 1 µg/mL. For the same compound, the MIC (MRSA ATCC 43300 [3]; MRSA ATCC 43300, 40% serum) was 2 µg/mL, the MIC (MRSA ATCC 43300 [3]; MRSA ATCC 43300, No serum) was 0.25 µg/mL and the EC50 (Hennes-20 cells) was 500 nM. For the same compound, the “Organ exposure, concentration” value (Organ exposure in mice; Brain, 0.5 hrs) was 81 ng, the “Organ exposure, concentration” value (Organ exposure in mice; Brain, 2 hrs) was 56 ng and the “Organ exposure, concentration” value (Organ exposure in mice; Brain, 24 hrs) was 30 ng. For the same compound, the “Organ exposure, concentration” value (Organ exposure in mice; Heart, 0.5 hrs) was 1335 ng, the “Organ exposure, concentration” value (Organ exposure in mice; Heart, 2 hrs) was 1951 ng and the “Organ exposure, concentration” value (Organ exposure in mice; Heart, 24 hrs) was 821 ng. For the same compound, the “Organ exposure, concentration” value (Organ exposure in mice; Kidney, 0.5 hrs) was 1817 ng, the “Organ exposure, concentration” value (Organ exposure in mice; Kidney, 2 hrs) was 2179 ng and the “Organ exposure, concentration” value (Organ exposure in mice; Kidney, 24 hrs) was 637 ng. The “Organ exposure, concentration” value (Organ exposure in mice; Liver, 0.5 hrs) was 13897 ng, the “Organ exposure, concentration” value (Organ exposure in mice; Liver, 2 hrs) was 11563 ng and the “Organ exposure, concentration” value (Organ exposure in mice; Liver, 24 hrs) was 864 ng. For the same compound, the “Organ exposure, concentration” value (Organ exposure in mice; Lungs, 0.5 hrs) was 13003 ng, the “Organ exposure, concentration” value (Organ exposure in mice; Lungs, 2 hrs) was 4178 ng and the “Organ exposure, concentration” value (Organ exposure in mice; Lungs, 24 hrs) was 661 ng. The “Organ exposure, concentration” value (Organ exposure in mice; Muscle, 0.5 hrs) was 154.5 ng, the “Organ exposure, concentration” value (Organ exposure in mice; Muscle, 2 hrs) was 324.5 ng and the “Organ exposure, concentration” value (Organ exposure in mice; Muscle, 24 hrs) was 168.33 ng. For the same compound, the MIC (S. epidermidis ATCC14990) was 0.5 µg/mL, the MIC (S. pyogens ATCC49399 [4]) was 0.25 µg/mL and the MIC (S. pneumoniae ATCC49619) was 0.25 µg/mL. The MIC (E. faecalis ATCC29212) was 2 µg/mL, the MIC (E. faecium ATCC27270) was 0.5 µg/mL and the MIC (E. coli ATCC25922; ATCC25922, E. coli ATCC25922) was 4 µg/mL. The MIC (E. coli ATCC25922; ATCC25922, read-out: Anti-bacterial Activity (E. coli MIC (uM)), E. coli, Table 5) was 1.6 µM, the MIC (A. baumannii ATCC19606) was 2 µg/mL and the MIC range [5] was 0.25 to 0.5 µg/mL.
